Columns and labels:
NIH3T3 = assay: Anticancer activity against mouse NIH3T3 cells assessed as growth inhibition incubated for 48 hrs by MTT assay; format: cell-based; details: NIH3T3, 48 h
HeLa = assay: Anticancer activity against human HeLa cells assessed as growth inhibition incubated for 48 hrs by MTT assay; format: functional, cell-based
SK-MEL-28 = assay: Anticancer activity against human SK-MEL-28 cells assessed as growth inhibition incubated for 48 hrs by MTT assay; format: functional, cell-based; details: SK-MEL-28, 48 h
A549 = assay: Anticancer activity against human A549 cells assessed as growth inhibition incubated for 48 hrs by MTT assay; format: functional, cell-based; details: A549, 48 h
U-87 MG = assay: Anticancer activity against human U-87 MG cells assessed as growth inhibition incubated for 48 hrs by MTT assay; format: functional, cell-based, U-87MG ATCC
MDA-MB-231 = assay: Anticancer activity against human MDA-MB-231 cells assessed as growth inhibition incubated for 48 hrs by MTT assay; format: functional, cell-based; details: MDA-MB-231, 48 h
HepG2 = assay: Anticancer activity against human HepG2 cells assessed as growth inhibition incubated for 48 hrs by MTT assay; format: functional, cell-based; details: HepG2, 48 h
DU-145 = assay: Anticancer activity against human DU-145 cells assessed as growth inhibition incubated for 48 hrs by MTT assay; format: functional, cell-based; details: DU-145, 48 h
HEK293 = assay: Anticancer activity against human HEK293 cells assessed as growth inhibition incubated for 48 hrs by MTT assay; format: cell-based; details: HEK293, 48 h

Row | SMILES | IC50 (HeLa) | IC50 (SK-MEL-28) | IC50 (A549) | IC50 (U-87 MG) | IC50 (MDA-MB-231) | IC50 (HepG2) | IC50 (DU-145) | IC50 (NIH3T3) | IC50 (HEK293)
1 | Clc1ccc(Sc2c(-c3ccccc3)nc3ccccn23)cc1 | 36.6 µM | 74 µM | 27.7 µM | 62.8 µM | 57.6 µM | 16.9 µM | 76.7 µM | 88.7 µM | 91.4 µM
2 | Cc1ccc(-c2nc3ccc(C)cn3c2Sc2ccccc2)cc1 | 65.2 µM | 95.7 µM | 23.8 µM | 82.1 µM | 38 µM | 14.6 µM | 57.7 µM | > 100 µM | > 100 µM
3 | c1ccc(Sc2c(-c3ccsc3)nc3ccccn23)cc1 | 76 µM | 69.3 µM | 72.9 µM | 58.6 µM | 62.8 µM | 49.6 µM | 85.9 µM | 94.1 µM | 91.7 µM
4 | COc1ccc(-c2nc3ccccn3c2Sc2ccccc2)cc1 | > 100 µM | 83.9 µM | 58.4 µM | > 100 µM | > 100 µM | 54.2 µM | 76.8 µM | 91.7 µM | > 100 µM
5 | Cc1ccc(-c2nc3ccccn3c2Sc2ccccc2)cc1 | 86.7 µM | > 100 µM | 94.3 µM | > 100 µM | > 100 µM | 67.9 µM | 83.3 µM | > 100 µM | > 100 µM
6 | CS(=O)(=O)c1ccc(-c2nc3ccccn3c2Sc2cccc3ccccc23)cc1 | 34.6 µM | 67.3 µM | 19.6 µM | 56.2 µM | 24.1 µM | 13.6 µM | 20.8 µM | 86.4 µM | 83.2 µM
7 | CS(=O)(=O)c1ccc(-c2nc3ccccn3c2Sc2ccccc2)cc1 | 70.6 µM | 61.9 µM | 23.2 µM | 77.2 µM | 72.7 µM | 13.2 µM | 67.8 µM | > 100 µM | > 100 µM

Continued by falling IC50 (HeLa), values first:

Row | IC50 (HeLa) | IC50 (SK-MEL-28) | IC50 (A549) | IC50 (U-87 MG) | IC50 (MDA-MB-231) | IC50 (HepG2) | IC50 (DU-145) | SMILES | IC50 (NIH3T3) | IC50 (HEK293)
8 | 72.6 µM | > 100 µM | 54.2 µM | > 100 µM | 76.7 µM | 47.8 µM | 71.7 µM | c1ccc(Sc2c(-c3ccccc3)nc3ccc(-c4ccccc4)cn23)cc1 | > 100 µM | > 100 µM
9 | 64.2 µM | 67.5 µM | 35.2 µM | 65.5 µM | 17.8 µM | 15.7 µM | 76.5 µM | N#Cc1ccc(-c2nc3ccccn3c2Sc2ccccc2)cc1 | > 100 µM | > 100 µM
10 | 64.1 µM | > 100 µM | 75.1 µM | > 100 µM | 72.1 µM | 57.8 µM | 78 µM | Clc1ccc(-c2nc3sc4ccccc4n3c2Sc2ccccc2)cc1 | > 100 µM | > 100 µM
11 | 29.3 µM | 76.9 µM | 24.4 µM | > 100 µM | 55.8 µM | 15.7 µM | 56.3 µM | Clc1ccc2nc(-c3ccccc3)c(Sc3ccccc3)n2c1 | > 100 µM | > 100 µM
